Series [1] concerns male suffering from impotence, which is substantially only neurogenic or psychogenic. Particulars: cited from earlier work; for erection after intracavernosal injection where severe atherosclerosis is not involved (background): injection into a corpus cavernosum.
Series [2] has as its system males suffering from impotence of which severe atherosclerosis is a cause. The following applies: background statement; cited from earlier work.
Series [3] deals with human males. The following applies: cited from earlier work; for priapism (background): treatment of impotence.
The test system of series [4] is male suffering from impotence, which is substantially only neurogenic or psychogenic. The series is described as follows: Intracavernosal injection coupled with sexual stimulation in males with impotence that is substantially only neurogenic or psychogenic. It counts as in vivo, human. Particulars: for time to erection sufficient for vaginal penetration: 1 ml of 30 μg/ml in phosphate buffered saline, after tourniquet release (5-10 minutes after injection) and sexual stimulation; for dose with which virtually all males achieve an erection sufficient for vaginal penetration: intracavernosal injection in physiologically acceptable diluent; for dose with which virtually all males achieve an erection sufficient for vaginal penetration / dose as low as which many males achieve an erection sufficient for vaginal penetration: coupled with sexual stimulation; for dose as low as which many males achieve an erection sufficient for vaginal penetration: intracavernosal injection.
Experimental: A preferred composition to effect an erection in male suffering from impotence, which is substantially only neurogenic or psychogenic, in accord with the methods herein, is a solution of PHM or VIP at 30 μg/ml in phosphate buffered saline at pH between about 2 and about 4.5, preferably between about 2 and about 3.5 and most preferably about 3, with the PHM or VIP the only substance in the solution that is pharmacologically active in inducing an erection. Preferably 1 ml of the preferred composition is administered as a bolus by injection into a corpus cavernosum while the penis is constricted at its base with a tourniquet. About 5-10 minutes after the injection, the tourniquet is released and, if not already started before the tourniquet is released, sexual stimulation is begun. […] The composition, however, the time between administration and sexual stimulation may be longer, if necessary.

The subject of series [5] is males suffering from impotence of which severe atherosclerosis is a cause. The experiment in a line: Intracavernosal injection coupled with sexual stimulation in males with impotence of which severe atherosclerosis is a cause. It is filed as in vivo, human. Here is the method:
To minimize side-effects when VIP is employed in such a composition, it is preferred that less than about 60 μg of VIP be administered.
Thus, between about 0. […] If necessary, the time between injection and sexual stimulation may be longer, up to several hours.

Series [6] has as its system human males. The experiment in a line: Side effects of intracavernosal injection to induce an erection. It is filed as in vivo.
The test system of series [7] is normal male (males not suffering from erectile insufficiency). The following applies: cited from earlier work.

“Also recorded” adds a separate entry of the source. Where no end group is shown, it is not given here.

As for `COc1ccc(Cc2nccc3cc(OC)c(OC)cc23)cc1OC` [papaverine], the “erection after intracavernosal injection where severe atherosclerosis is not involved (background)” value in series [1] is listed as “cause an erection sufficient for vaginal penetration”. The “induction of erection in impotence due to severe atherosclerosis (background)” value (shortened to “induction of erection in impotence due”) in series [2] is “ineffective; also recorded: not susceptible to treatment”. Moreover, the “pain on injection (background)” value in the series on human males [3] (intracavernosal use) was “painful, burning sensation in the first two or so minutes after the injection”. The “fibrosis on repeated use (background)” value in the series on human males [3] (repeated use) is on record as “undesirable, extensive intracavernous fibrosis”. Also, the “priapism (background)” value in the series with human males [3] is listed as “often results in priapism”.
Turning to `CC(COc1ccccc1)N(CCCl)Cc1ccccc1` (centres unmarked) [phenoxybenzamine], in series [1], the “erection after intracavernosal injection where severe atherosclerosis is not involved (background)” value was “cause an erection sufficient for vaginal penetration”. Further, the “induction of erection in impotence due” value in series [2] was “not susceptible to treatment”. In addition, the “carcinogenicity (background)” value with human males [3] (in vivo) is “is a carcinogen”. The “priapism (background)” value in the series on human males [3] is “often results in priapism”.
For “peptide N-terminal histidine C-terminal methionineamide (HADGVFTSDFSKLLGQLSAKKYLESLM-NH2; UniProt P01282 81-107, looked up) [PHM]”, in series [4], the “time to erection sufficient for vaginal penetration” value was not above 5 min, the “dose with which virtually all males achieve an erection sufficient for vaginal penetration” value turned out to be 30 µg and the “dose as low as which many males achieve an erection sufficient for vaginal penetration” value was 10 µg. In series [4] (at the same dosage), the “duration of pharmacological effect compared with VIP” value was “somewhat longer lasting pharmacological effect than VIP”. Further, the “induction of erection in impotence caused by severe atherosclerosis” value in series [5] is given as “not effective in inducing erections”. Further, the priapism result in the series with human males [6] (induction of an erection with VIP or PHM by intracavernosal injection) is on record as “does not entail priapism; also recorded: Priapism does not occur”.
`Cc1ccc(N(CC2=NCCN2)c2cccc(O)c2)cc1` [phentolamine]: the “erection after intracavernosal injection where severe atherosclerosis is not involved (background)” value in series [1] is on record as “causes an erection sufficient for vaginal penetration”. In addition, the “duration of resulting erection (background)” value in series [1] (intracavernosal injection, severe atherosclerosis not a cause) was “significantly shorter duration than that induced by intracavernosal injection of papaverine or phenoxybenzamine”. The “induction of erection in impotence due” value in series [2] is “not susceptible to treatment”.
For “human vasoactive intestinal peptide [VIP]”, in series [4], the “time to erection sufficient for vaginal penetration” value is not above 5 min, the “dose with which virtually all males achieve an erection sufficient for vaginal penetration” value was found to be 30 µg and the “dose as low as which many males achieve an erection sufficient for vaginal penetration” value stood at 10 µg. The “induction of erection in impotence caused by severe atherosclerosis” value in series [5] was “not effective in inducing erections”. Moreover, in the series on human males [6] (in vivo), the “side-effects observed at higher doses” value was “hypotension, increased pulse rate, flushing of the face and trunk”. The “erectile response coupled with visual and/or vibratory sexual stimulation” value in series [7] (as little as 1 μm (at 1 μm/ml of diluent) injected into a corpus cavernosum) is on record as “facilitates full erection”. Besides, the “erectile response without sexual stimulation” value in series [7] (injection of up to 20 μm of VIP (at 20 μm/ml of diluent) into a corpus cavernosum, no sexual stimulation) is given as “only slight swelling (slight tumescence) of the penis but not an erection”. The “induction of erection in impotence due” value in series [2] is “does not induce erections”.
